Reference: US20100261711A1, “SELECTIVE ANTICONVULSANT AGENTS AND THEIR USES” (WiSys Technology Foundation, priority 2009, published 2010)

Key:
MES-induced seizures [1] = assay: Maximal electroshock test (MES), mice; assay type: in vivo; conditions: Mice IP
Procedure: (§1) The benzodiazepine derivative compounds selective for GABAa receptor subunits were tested for the ability to suppress seizures in several standard rat and mouse models of epilepsy. […] The standard models incorporated into anticonvulsant screening include the maximal electroshock test (MES), the subcutaneous Metrazol test (scMet), and evaluations of toxicity (TOX). The data for each condition is presented as a ratio of either the number of animals protected or toxic (loss of locomotor activity) over the number of animals tested at a given time point and dose.
(§2) The MES is a model for generalized tonic-clonic seizures and provides an indication of a compound's ability to prevent seizure spread when all neuronal circuits in the brain are maximally active. These seizures are highly reproducible and are electrophysiologically consistent with human seizures. For all tests based on MES convulsions, 60 Hz of alternating current (50 mA in mice, 150 in rats) is delivered for by corneal electrodes which have been primed with an electrolyte solution containing an anesthetic agent (0.5% tetracaine HCL). For Test 1, mice are tested at various intervals following doses of 30, 100 and 300 mg/kg of test compound given by ip injection of a volume of 0.01 mL/g. In Test 2, rats are tested after a dose of 30 mg/kg (po) in a volume of 0.04 mL/g. Test 8 uses varying doses administered via i.p. injection, again in a volume of 0.04 ml/g. […] In Antiepileptic Drugs, Levy, R. H. M., Meldrum, B. S., Eds.; Raven Press: New York, pp 99-110, 1995b.).

[2] = test system: Metrazol-induced clonic seizures; assay: Subcutaneous Metrazol test (scMet), mice; assay type: in vivo
Procedure: as §1
(§3) Subcutaneous injection of the convulsant Metrazol produces clonic seizures in laboratory animals. […] Animals are pretreated with various doses of the test compound (in a similar manner to the MES test, although a dose of 50 mg/kg (po) is the standard for Test 2 scMet). At the previously determined TPE of the test compound, the dose of Metrazol which will induce convulsions in 97% of animals (CD97: 85 mg/kg mice) is injected into a loose fold of skin in the midline of the neck. […] An episode of clonic spasms, approximately 3-5 seconds, of the fore and/or hindlimbs, jaws, or vibrissae is taken as the endpoint.

[3] = test system: minimal muscular or neurological impairment; assay: Toxicity (TOX), rotorod procedure, mice; assay type: in vivo
Procedure: as §1
(§4) To assess a compound's undesirable side effects (toxicity), animals are monitored for overt signs of impaired neurological or muscular function. […] When a mouse is placed on a rod that rotates at a speed of 6 rpm, the animal can maintain its equilibrium for long periods of time. The animal is considered toxic if it falls off this rotating rod three times during a 1-min period. In rats, minimal motor deficit is indicated by ataxia, which is manifested by an abnormal, uncoordinated gait. Rats used for evaluating toxicity are examined before the test drug is administered, since individual animals may have peculiarities in gait, equilibrium, placing response, etc., which might be attributed erroneously to the test substance.

[4] = test system: Metrazol-induced clonic seizures; assay: Subcutaneous Metrazol test (scMet), rats; assay type: in vivo
Procedure: as §1, §3

[5] = test system: minimal motor deficit (ataxia, abnormal gait); assay: Toxicity (TOX), minimal motor deficit, rats; assay type: in vivo; conditions: for TOX (Rotorod Test), animals toxic/tested: Rat IP, 100 mg/kg; for Tox, animals toxic/tested: Rat PO, 50 mg/kg
Procedure: as §1, §4

[6] = biological target: T1, GABAA/α1 (α1β3γ2 GABAA receptors) (Homo sapiens, UniProt P14867+P18507); assay: Competitive binding assay, [3H]flunitrazepam; conditions: Binding Affinity at GABAA/α1, αxβ3γ2, [3H]flunitrazepam competition
T1 construct: expressed in transfected cells
Procedure: (§5) The GABAA subunit selectivity of several compounds prepared as described above were determined using competitive binding assays. […] Membranes were harvested with a Brandel cell harvester followed by three ice-cold washes onto polyethyleneimine-pretreated (0.3%) Whatman GF/C filters. Filters were dried overnight and then soaked in Ecoscint, a liquid scintillation cocktail (National Diagnostics; Atlanta, Ga.). Bound radioactivity was quantified by liquid scintillation counting. Membrane protein concentrations were determined using an assay kit from Bio-Rad (Hercules, Calif.) with bovine serum albumin as the standard.

[7] = biological target: T2, GABAA/α2 (α2β3γ2 GABAA receptors) (Homo sapiens, UniProt P18507+P47869); assay: Competitive binding assay, [3H]flunitrazepam; conditions: Binding Affinity at GABAA/α2, αxβ3γ2, [3H]flunitrazepam competition
T2 construct: expressed in transfected cells
Procedure: as §5

[8] = biological target: T3, GABAA/α5 (α5β3γ2 GABAA receptors) (Homo sapiens, UniProt P18507+P31644); assay: Competitive binding assay, [3H]flunitrazepam; conditions: Binding Affinity at GABAA/α5, αxβ3γ2, [3H]flunitrazepam competition
T3 construct: expressed in transfected cells
Procedure: as §5

MES-induced seizures [9] = assay: Maximal electroshock test (MES), rats; assay type: in vivo; conditions: Rat PO, 50 mg/kg
Procedure: as §1, §2

6 Hz psychomotor seizure = assay: Minimal clonic seizure (6 Hz) test; assay type: in vivo; conditions: Mice IP, 44 mA, 0.5 Hr
Excerpt: Like the maximal electroshock (MES) test, the minimal clonic seizure (6 Hz) test is used to assess a compound's efficacy against electrically-induced seizures but uses a lower frequency (6 Hz) and longer duration of stimulation (3 s). Test compounds are pre-administered to mice via ip injection. […] Untreated mice will display seizures characterized by a minimal clonic phase followed by stereotyped, automatistic behaviors described originally as being similar to the aura of human subjects with partial seizures. Animals not displaying this behavior are considered protected (Table 10).

[10] = biological target: T4, GABAA/α6 (α6β3γ2 GABAA receptors) (Homo sapiens, UniProt P18507+Q16445); assay: Competitive binding assay, [3H]flunitrazepam
T4 construct: expressed in transfected cells
Procedure: as §5

[11] = Mice, 50 mg/kg PO (Mice IP), 0.5 hr
[12] = Mice, 50 mg/kg PO (Mice IP), 4.0 hr

C#Cc1ccc2c(c1)C(c1ccccc1)=NCc1c(C(=O)OCC)ncn1-2 [XHe-II-053 (7), Ethyl 8-acetylenyl-6-phenyl-4H-benzo[f]imidazo[1,5-a][1,4]diazepine-3-carboxylate]
MES, animals protected/tested (MES-induced seizures [1]; 100 mg/kg, 0.5 hr): 0/3 | MES, animals protected/tested (MES-induced seizures [1]; 100 mg/kg, 4.0 hr): 0/3 | scMet, animals protected/tested ([2]; Mice IP, 100 mg/kg, 0.5 hr): 0/1 | scMet, animals protected/tested ([2]; Mice IP, 100 mg/kg, 4.0 hr): 0/1 | scMet, animals protected/tested [2, 11]: 1/4 | scMet, animals protected/tested [2, 12]: 0/4 | TOX (Rotorod Test), animals toxic/tested ([3]; Mice IP, 100 mg/kg, 0.5 hr): 0/8 | TOX (Rotorod Test), animals toxic/tested ([3]; Mice IP, 100 mg/kg, 4.0 hr): 0/4 | TOX (Rotorod Test), animals toxic/tested [3, 11]: 2/4 | TOX (Rotorod Test), animals toxic/tested [3, 12]: 0/4 | scMet, animals protected/tested ([4]; Rat IP, 100 mg/kg, 0.5 hr): 1/4 | scMet, animals protected/tested ([4]; Rat IP, 100 mg/kg, 4.0 hr): 0/4 | TOX (Rotorod Test), animals toxic/tested ([5]; 0.5 hr): 2/4 | TOX (Rotorod Test), animals toxic/tested ([5]; 4.0 hr): 0/4

CNC1=Nc2ccc(C#C[Si](C)(C)C)cc2C(c2ccccc2)=NC1
melting point: 210 to 211 °C

C#Cc1ccc2c(c1)C(c1ccccc1)=N[C@@H](C)c1nnc(C)n1-2 [SH-TS-CH3 (143), (4S)-8-Ethynyl-1,4-dimethyl-6-phenyl-4H-benzo[f][1,2,4]triazolo[4,3-a][1,4]diazepine]
Ki [6]: 107 nM | Ki [7]: 50.1 nM | Ki [8]: 8.1 nM | MES, animals protected/tested (MES-induced seizures [1]; 3 mg/kg, 0.5 Hr): 0/4 | MES, animals protected/tested (MES-induced seizures [1]; 10 mg/kg, 0.5 Hr): 0/4 | MES, animals protected/tested (MES-induced seizures [1]; 30 mg/kg, 0.5 Hr): 1/1 | MES, animals protected/tested (MES-induced seizures [1]; 30 mg/kg, 4.0 Hr): 0/1 | MES, animals protected/tested (MES-induced seizures [1]; 100 mg/kg, 0.5 hr): 3/3 | MES, animals protected/tested (MES-induced seizures [1]; 100 mg/kg, 4.0 hr): 0/3 | MES, animals protected/tested (MES-induced seizures [1]; 300 mg/kg, 0.5 Hr): 1/1 | MES, animals protected/tested (MES-induced seizures [1]; 300 mg/kg, 4.0 Hr): 1/1 | scMet, animals protected/tested ([2]; Mice IP, 3 mg/kg, 0.5 Hr): 2/4 | scMet, animals protected/tested ([2]; Mice IP, 10 mg/kg, 0.5 Hr): 4/4 | scMet, animals protected/tested ([2]; Mice IP, 30 mg/kg, 0.5 Hr): 1/1 | scMet, animals protected/tested ([2]; Mice IP, 30 mg/kg, 4.0 Hr): 0/1 | scMet, animals protected/tested ([2]; Mice IP, 100 mg/kg, 0.5 hr): 1/1 | scMet, animals protected/tested ([2]; Mice IP, 100 mg/kg, 4.0 hr): 1/1 | scMet, animals protected/tested ([2]; Mice IP, 300 mg/kg, 0.5 Hr): 1/1 | scMet, animals protected/tested ([2]; Mice IP, 300 mg/kg, 4.0 Hr): 1/1 | TOX (Rotorod Test), animals toxic/tested ([3]; Mice IP, 3 mg/kg, 0.5 Hr): 0/8 | TOX (Rotorod Test), animals toxic/tested ([3]; Mice IP, 10 mg/kg, 0.5 Hr): 5/8^14 | TOX (Rotorod Test), animals toxic/tested ([3]; Mice IP, 30 mg/kg, 0.5 Hr): 4/4^14 | TOX (Rotorod Test), animals toxic/tested ([3]; Mice IP, 30 mg/kg, 4.0 Hr): 0/2 | TOX (Rotorod Test), animals toxic/tested ([3]; Mice IP, 100 mg/kg, 0.5 hr): 8/8^14 | TOX (Rotorod Test), animals toxic/tested ([3]; Mice IP, 100 mg/kg, 4.0 hr): 0/4 | TOX (Rotorod Test), animals toxic/tested ([3]; Mice IP, 300 mg/kg, 0.5 Hr): 4/4^13 | TOX (Rotorod Test), animals toxic/tested ([3]; Mice IP, 300 mg/kg, 4.0 Hr): 2/2^14 | MES, animals protected/tested (MES-induced seizures [9]; 0.5 h): 0/4 | MES, animals protected/tested (MES-induced seizures [9]; 1.0 h): 0/4 | MES, animals protected/tested (MES-induced seizures [9]; 2.0 h): 0/4 | MES, animals protected/tested (MES-induced seizures [9]; 4.0 h): 0/4 | MES, animals protected/tested (MES-induced seizures [9]; […]): 0/4 | scMet, animals protected/tested ([4]; Rat PO, 50 mg/kg, 0.5 h): 1/4 | scMet, animals protected/tested ([4]; Rat PO, 50 mg/kg, 1.0 h): 0/4^5 | scMet, animals protected/tested ([4]; Rat PO, 50 mg/kg, 2.0 h): 2/4^25 | scMet, animals protected/tested ([4]; Rat PO, 50 mg/kg, 4.0 h): 0/4^5 | scMet, animals protected/tested ([4]; Rat PO, 50 mg/kg, […]): 0/4^5 | Tox, animals toxic/tested ([5]; 0.5 h): 0/4 | Tox, animals toxic/tested ([5]; 1.0 h): 0/4 | Tox, animals toxic/tested ([5]; 2.0 h): 0/4 | Tox, animals toxic/tested ([5]; 4.0 h): 0/4 | Tox, animals toxic/tested ([5]; […]): 0/4 | 6 Hz ED50 Biological Response, protected/tested (6 Hz psychomotor seizure; 3 mg/kg): 4/8 | 6 Hz ED50 Biological Response, protected/tested (6 Hz psychomotor seizure; 6 mg/kg): 5/8 | 6 Hz ED50 Biological Response, protected/tested (6 Hz psychomotor seizure; 10 mg/kg): 8/8 | ED50 (6 Hz psychomotor seizure; Mus musculus, ip, 0.5 h, read-out: ED50 (6 Hz)): 3.98 mg/kg

O=C(OCC(F)(F)F)c1ncn2c1CN=C(c1ccccc1F)c1cc(Br)ccc1-2 [JYI-49, Trifluoroethyl-8-bromo-6-(2′-fluorophenyl)-4H-benzo[f]imidazo[1,5-a][1,4]diazepine-3-carboxylate]
Ki [6]: 1.87 nM | Ki [7]: 2.38 nM | Ki [8]: 6.7 nM | Ki [10]: 3390 nM

CCOC(=O)c1ncn2c1CN=C(c1ccccn1)c1cc(C#C[Si](C)(C)C)ccc1-2
melting point: 205 to 206 °C

C[Si](C)(C)C#Cc1ccc2c(c1)C(c1ccccc1)=NCc1c(C(=O)OCC(F)(F)F)ncn1-2
melting point: 107 to 110 °C

O=C(OCC(F)(F)F)c1ncn2c1CN=C(c1ccccc1)c1cc(Br)ccc1-2
melting point: 202 to 204 °C

CC(C)(C)OC(=O)c1ncn2c1CN=C(c1ccccc1)c1cc(Br)ccc1-2
melting point: 222 to 223 °C

CCOC(=O)c1ncn2c1CN=C(c1ccccc1)c1cc(Cl)ccc1-2
melting point: 174 to 175 °C

O=C(OCC(Cl)(Cl)Cl)c1ncn2c1CN=C(c1ccccc1)c1cc(Br)ccc1-2
melting point: 113 to 116 °C

CN1C(=O)CN=C(c2ccccn2)c2cc(C#C[Si](C)(C)C)ccc21
melting point: 194 to 195 °C

C#Cc1ccc2c(c1)C(c1ccccn1)=NCC(=O)N2C
melting point: 190 to 191 °C

CNC1=Nc2ccc(Br)cc2C(c2ccccc2)=NC1
melting point: 234 to 235 °C

C[Si](C)(C)C#Cc1ccc2c(c1)C(c1ccccn1)=NCC(=O)N2
melting point: 242 to 243 °C
